The values below come from PMC6891695, “Evaluation of Antifouling Potential and Ecotoxicity of Secondary Metabolites Derived from Red Algae of the Genus Laurencia” (Marine Drugs, 2019).

Series [1] in a line: in vivo. The format is in vivo. Conditions: Amphibalanus amphitrite, in vivo, read-out: LC50 Mortality; for LC50 at 24 h: 24 h exposure; for LC50 at 48 h: 48 h exposure; for LC50 at 72 h: 72 h exposure. Here is the method: (§1) Adult A. amphitrite (Cirripedia, Balanidae) were collected from boat docks at Port Mikrolimano and Floisvos, Athens, Greece. Animals were cleaned of epibionts with a small hard brush and meticulously identified as individuals of the species. Adult barnacles were kept in separate aerated glass tanks (20 L) containing 200-μm filtered natural seawater at 27 °C and a 12:12 L:D photoperiod. Tanks were fed with 24-h hatched Artemia sp. (Branchiopoda) nauplii and Tetraselmis suecica (Chlorodendrophyceae) and Skeletonema costatum (Bacillariophyceae) algae each day and seawater was changed on alternate days. Upon stress to induce oviposition (exposure to air for 24 h or immersion in fresh water for 5 h), adults were returned to seawater for larval release. Hatched nauplii were attracted to a point light source, collected and placed into a beaker containing 2 or 3 L of 0.7 μm GF/F (GE Healthcare, Little Chalfont, UK )-filtered natural seawater at a density of approximately 1–2 nauplii/mL with gentle aeration. Nauplii were maintained at 27 °C at a 12:12 L:D photoperiod on a diet of C. gracilis (Bacillariophyceae) provided at a density of 2 × 10^5 cells/mL. Cultured in these conditions, nauplii metamorphosed to cyprids in 5 days. Aliquots of these cyprids were collected with a wide-mouthed Pasteur pipette and aged at 4 °C for 1 day prior to use in settlement assays. Only batches of cyprids that were active and had numerous oil cells, representing energy reserves, were used in settlement assays.
(§2) Assays were conducted by adding 10 cyprids into individual wells of a 24-well polystyrene sterile microplate (Orange Scientific, Braine l’Alleud, Belgium) with 2 mL of artificial sea water (ASW) (25‰) and various concentrations of the chemical compounds as listed in Table 1. These experiments were repeated at least three times with four replicates for each concentration of any given compound (n = 120 cyprids/compound). Stock solutions for all compounds were prepared in methanol (Scharlab, Barcelona, Spain) and serial dilutions were prepared in 0.7 μm (GF/F, GE Healthcare, Little Chalfont, UK), filtered sea water to have a final concentration of 2.5% methanol in each assay solution. Plates were covered and sealed with Parafilm® to avoid evaporation and incubated at 25 °C away from any light source and examined after 24, 48 and 72 h. Each animal was inspected under a stereomicroscope and its condition was recorded. […] Both permanently attached and metamorphosed individuals were counted as settled or juveniles. The remainder were counted as ‘no metamorphosis’, i.e. animals that responded to light touch and were still cyprids at the end of the experiments with no overt signs of metamorphosis.
(§3) For EC50 or IC50 (the concentration that results in 50% stimulation or inhibition relative to the control) calculations in GraphPad Prism v.6, all data were fitted to the curve according to the following models for normalized response: Y = 100/(1 + 10^((X − LogIC50))) or Y = 100/(1 + 10^((LogEC50 − X))) depending on the trend of the curve.

Series [2] has as its system cyprids of A. amphitrite. Nature of the series: whole plant or invertebrate. The format is in vivo. Conditions: for EC50 / IC50: Amphibalanus amphitrite; for EC50: read-out: EC50 No Metamorphosis; for EC50 values for settlement inhibition of barnacle cyprids (in words): consistently, 24-72 h. Here is the method: as §1, §2, §3
For series [3], the system named is HEK293 cell line. Nature of the series: HEK293 alamar blue/resazurin assay (mitochondria function). The following applies: for EC50: Homo sapiens, HEK293, Alamar blue/Resazurin assay, 48 h incubation; for effect on mitochondrial function and metabolism (in words): HEK293. The format is cell-based, human. Here is the method:
(§4) The RTL-W1 cell line, a non-transformed rainbow trout liver cell line that has already been used in environmental toxicity assays, was established from the normal liver of an adult rainbow trout by proteolytic dissociation of liver fragments. RTL-W1 cells were cultured in 75 cm^2 culture flasks (Orange Scientific, Braine l’Alleud, Belgium) at 20 °C in Leibovitz’s (L-15, Sigma-Aldrich, St. Louis, MO, USA) medium supplemented with 5% fetal bovine serum (FBS) and 1% L-glutamine in CO2-free incubator. For the cytotoxicity assays of the selected secondary metabolites, cells were seeded at 3 × 10^4 cells/well density in a 96-well tissue culture plate (Orange Scientific Braine l’Alleud, Belgium) in 100 μL culture medium/well for 2 days before the assays. Three different cytotoxicity protocols were used: 1) The alamar blue/resazurin fluorometric/colorimetric cell viability assay to assess the metabolic capacity and mitochondrial function; 2) the crystal violet cell viability assay for indirect quantification of cell death; and 3) the neutral red cell proliferation assay for lysosomal activity. Two days after seeding the cells, cultures were incubated with various concentrations of selected secondary metabolites at 20 °C for 48 h before cell viability was assessed. […] For the alamar blue/resazurin fluorometric/colorimetric cell viability assay, 100 μL of 3 μg/100 μL Resazurin sodium salt (Sigma-Aldrich, St. Louis, MO, USA) in incubation medium was added on each well and incubated under sterile conditions at 20 °C for 4 h. For the crystal violet cell viability assay, after 48 h of incubation with each secondary metabolite, the culture medium was aspirated and cells were washed twice with sterile dd. H2O. The final wash was aspirated and 50 μL of 0.5% (w/v) crystal violet staining solution (20% methanol in dd. H2O) was added to each well followed by incubation for 20 min at room temperature on a bench rocker with a frequency of 20 oscillations per minute. The staining solution was then aspirated and the plate was washed four times with sterile dd. H2O and left to air-dry without its lid for 3 h at room temperature. Next, 200 μL of methanol was added to each well, and the plate was incubated with its lid on for 20 min at room temperature on a bench rocker with a frequency of 20 oscillations per minute. For the neutral red cell proliferation assay, after 48 h of incubation with each secondary metabolite, the culture medium was aspirated and cells were washed twice with phosphate-buffered saline (PBS, pH 7.4). Cells were then incubated with 100 μL of a 40 μg/mL neutral red staining solution in culture medium at 20 °C for 4 h followed by two washes with 150 μL of PBS. Then cells were incubated with 100 μL neutral red destain solution (50% ethanol, 49% dd. H2O, 1% glacial acetic acid) for 10 min on a bench rocker with a frequency of 80 oscillations per minute. Absorbance was read at 570 nm for alamar blue/resazurin and crystal violet and at 540 nm for neutral red using a Tecan infinite M200 Pro microplate reader. For each assay and each secondary metabolite, a minimum of four independent dose–response experiments with three replicates each were carried out. Calculations were carried out using detailed formulas (AbCam, Cambridge, UK, and results were analyzed with GraphPad Prism v.6.
(§5) HEK293 cells, a human embryotic kidney cell line, were obtained from ATCC (ATCC® CRL-1573™) at passage 37 of the original clone and used at passage 38. Cells were cultured routinely in 75 cm^2 culture flasks (Orange Scientific, Braine l’Alleud, Belgium) at 37 °C (5% CO2) in DMEM cell culture medium (Biosera) supplemented with 10% FBS (Sigma-Aldrich, St. Louis, MO, USA) and 1% L-glutamine. All assay conditions and protocols were identical to those described above for RTL-W1 cells with the exception that incubations were carried out at 37 °C. […]
A general note: Resazurin is reduced to fluorescent resorufin, in cell work by metabolically active cells.

Series [4] has as its system HEK293 cell line. Description: HEK293 crystal violet assay (cell viability). The format is cell-based, human. The following applies: for cytotoxicity in crystal violet assay (in words): HEK293; for EC50: Homo sapiens, HEK293, Crystal violet assay, 48 h incubation. Here is the method:
as §4, §5

Setting [5] is: 24 h, read-out: IC50 Settlement.
Where [6] appears, read: 48 h, read-out: IC50 Settlement.
Setting [7] is: 72 h, read-out: IC50 Settlement.

Structures are written as SMILES. Like-named read-outs stand apart in the source and are kept apart here.

Take `CC(C)[C@@H]1CC=C[C@H]2[C@H]3[C@](C)(CC[C@]12CBr)[C@@H](Br)CC[C@@]3(C)O` [Bromosphaerol, reference compound]: the median lethal concentration (LC50) (in general, the concentration that kills 50% of the test population) at 24 h in series [1] was 17.9 µM. For the same compound, the LC50 at 48 h in series [1] was 4.57 µM. Also, in series [1], the LC50 at 72 h came to 2.5 µM. The EC50 (as a rule, the concentration that produces a half-maximal response) in series [2] (24 h) was found to be 0.45 µM; in series [2] (48 h) it was 0.267 µM; in series [2] (72 h) it was 0.561 µM; in series [3] it was 57.6 µM; in series [4] it was 97.1 µM. In addition, the IC50 (commonly the concentration at which inhibition is half-maximal) is 0.58 µM in series [2] (setting [5]), 0.624 µM in series [2] (setting [6]) and 0.836 µM in series [2] (setting [7]). The “animals not progressing to metamorphosis” value in series [2] (in vivo) is “large percentage of animals not progressing to metamorphosis”. In series [4], the “cytotoxicity in crystal violet assay (in words)” value is recorded as “mild cytotoxicity”.
For `CC1=C2CC[C@@](C)(Cl)[C@@H](Br)C[C@]2(C)[C@@H](C)[C@@H](Br)[C@@H]1O` [Compound 9, perforenol], the LC50 at 24 h in series [1] was 76.2 µM. Moreover, in series [1], the LC50 at 48 h was 116 µM. Further, in series [1], the LC50 at 72 h stood at 49.1 µM. Further, the EC50 in series [2] (24 h) amounted to 38.2 µM; in series [2] (48 h), 47.4 µM; in series [2] (72 h), 57.8 µM; in series [3], 10.8 µM; in series [4], 81.1 µM. Also, the IC50 is 0.52 µM in series [2] (setting [5]), 0.66 µM in series [2] (setting [6]), 0.5 µM in series [2] (setting [7]) and ~0.5 µM in series [2] (read-out: IC50 settlement-inhibiting activity). For the same compound, the “EC50 values for settlement inhibition of barnacle cyprids (in words)” value (shortened to “EC50 values for settlement inhibition”) in series [2] is “sub-micromolar”. The “cytotoxicity in crystal violet assay (in words)” value in series [4] was “mild cytotoxicity”.
On to `C=CC(C)(O)CC[C@@H]1C(=C)CC[C@@H](Br)[C@@]1(C)CCC1OC1(C)C` (some centres unmarked) [Compound 18], for which the LC50 at 24 h in series [1] is 26.2 µM. In addition, the LC50 at 48 h in series [1] was found to be 26.3 µM. For the same compound, the LC50 at 72 h in series [1] came out at 20.3 µM. Besides, the EC50 in series [2] (24 h) was 45.4 µM; in series [2] (48 h), 50.4 µM; in series [2] (72 h), 48.5 µM; in series [3], 0.225 µM; in series [4], > 1000 µM. For the same compound, the IC50 was 0.046 µM in series [2] (setting [5]), 0.076 µM in series [2] (setting [6]) and 0.316 µM in series [2] (setting [7]). The “EC50 values for settlement inhibition” value in series [2] is recorded as “sub-micromolar”. In addition, in series [3], the “effect on mitochondrial function and metabolism (in words)” value was “very selective against mitochondrial function and metabolism”.
Consider `C=C(C1CCC(C)(O)C(Br)C1)C1C(Br)C2C(CCC2(C)O)C1(C)C` (centres unmarked) [Compound 19, neorogioldiol], for which the LC50 at 24 h in series [1] was 413 µM. In addition, the LC50 at 48 h in series [1] amounted to 366 µM. Moreover, the LC50 at 72 h in series [1] stood at 573 µM. Also, the EC50 was found to be 52.8 µM in series [2] (24 h); 57.9 µM in series [2] (48 h); 70.4 µM in series [2] (72 h); 0.062 µM in series [3]; 434 µM in series [4]. In addition, the IC50 came out at 0.4 µM in series [2] (setting [5]), 0.915 µM in series [2] (setting [6]) and 0.756 µM in series [2] (setting [7]). The “EC50 values for settlement inhibition” value in series [2] is listed as “sub-micromolar”. For the same compound, the “effect on mitochondrial function and metabolism (in words)” value in series [3] was “very selective against mitochondrial function and metabolism”.
